Read-outs that look alike come from different tables or passages of the source.
How the values were obtained:
hMeprin α = target: T1, hMeprin α (Homo sapiens, UniProt Q16819); assay: biochemical; format: biochemical
T1 sequence (Q16819 66-746): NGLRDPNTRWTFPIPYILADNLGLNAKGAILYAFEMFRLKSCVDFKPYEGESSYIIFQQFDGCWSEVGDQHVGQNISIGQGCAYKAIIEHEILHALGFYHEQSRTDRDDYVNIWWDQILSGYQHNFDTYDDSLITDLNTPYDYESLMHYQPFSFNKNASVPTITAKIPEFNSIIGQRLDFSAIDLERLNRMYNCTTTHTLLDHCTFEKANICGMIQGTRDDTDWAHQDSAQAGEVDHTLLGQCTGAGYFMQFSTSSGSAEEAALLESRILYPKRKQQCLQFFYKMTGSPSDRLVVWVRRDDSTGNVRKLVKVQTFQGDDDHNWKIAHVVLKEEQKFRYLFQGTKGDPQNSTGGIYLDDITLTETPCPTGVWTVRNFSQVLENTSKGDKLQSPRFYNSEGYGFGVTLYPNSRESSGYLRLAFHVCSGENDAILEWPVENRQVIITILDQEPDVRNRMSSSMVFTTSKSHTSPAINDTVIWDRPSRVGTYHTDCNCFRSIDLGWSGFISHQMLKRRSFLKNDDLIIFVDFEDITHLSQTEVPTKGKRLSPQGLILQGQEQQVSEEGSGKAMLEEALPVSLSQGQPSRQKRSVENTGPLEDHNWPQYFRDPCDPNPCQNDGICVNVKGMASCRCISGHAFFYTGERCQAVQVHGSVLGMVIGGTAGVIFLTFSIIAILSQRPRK
Description: (§1) A typical assay of 250 μl total volume measured in black 96 well plates consisted of 100 μl buffer, 50 μl enzyme at a final concentration of 5e-8 M to 5e-9 M, 50 μl substrate (0.15 to 80 μM, in buffer, 0.5% DMSO) and 50 μl inhibitor solution (in buffer, 1% DMSO). In case of 125 μl assay volume (black 96 half area well plates) all volumes were cut in half. Enzymatic activity of ADAMs was measured in 384 well plates with 60 μl total assay volume consisting of 20 μl inhibitor, 20 μl buffer, 10 μl enzyme and 10 μl substrate.
(§2) Ki values were assessed combining 4 substrate concentrations (5-40 μM) with at least 5 inhibitor concentrations. […] Initial velocities were determined and converted into concentration units applying a standard curve obtained after complete conversion of different substrate concentrations under assay conditions. All measurements were performed using a fluorescence plate reader (FLUOstar OPTIMA, BMG Labtech) at 30° C. The kinetic parameters were determined at least in duplicates on separate days. The excitation/emission wavelength was 340/420 nm. The kinetic data was evaluated using GraFit software (version 7.0.3, Erithacus Software).
(§3) The following compounds according to the present invention were synthesized using the above general procedures. IC50 refers to the average IC50 values measured as described above, SD (IC50) refers to the standard deviation of the average IC50 values, Ki refers to the average K; values measured as described above, and SD (Ki) to the standard deviation of the average Ki values.

hMeprin β = target: T2, hMeprin β (Homo sapiens, UniProt Q16820); assay: Enzymatic assay, cleavage of internally quenched peptide substrate, hMeprin β; format: biochemical
T2 sequence (Q16820 62-701): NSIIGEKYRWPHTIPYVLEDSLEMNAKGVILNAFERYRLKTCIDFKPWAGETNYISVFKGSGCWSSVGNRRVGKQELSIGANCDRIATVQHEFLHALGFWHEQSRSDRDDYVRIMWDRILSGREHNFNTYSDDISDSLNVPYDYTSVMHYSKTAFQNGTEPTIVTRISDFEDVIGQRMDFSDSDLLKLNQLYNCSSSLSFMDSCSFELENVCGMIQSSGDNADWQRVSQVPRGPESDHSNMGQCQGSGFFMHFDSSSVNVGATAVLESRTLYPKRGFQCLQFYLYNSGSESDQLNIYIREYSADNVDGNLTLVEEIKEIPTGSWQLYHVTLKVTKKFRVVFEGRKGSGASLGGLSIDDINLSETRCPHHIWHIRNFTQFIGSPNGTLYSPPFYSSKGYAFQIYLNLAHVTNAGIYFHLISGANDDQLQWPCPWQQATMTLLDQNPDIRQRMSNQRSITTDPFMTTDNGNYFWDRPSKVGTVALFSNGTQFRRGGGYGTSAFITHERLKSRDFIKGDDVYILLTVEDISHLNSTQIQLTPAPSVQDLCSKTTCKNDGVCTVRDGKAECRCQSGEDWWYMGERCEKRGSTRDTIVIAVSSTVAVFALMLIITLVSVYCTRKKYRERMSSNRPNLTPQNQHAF
Description: as §1, §2, §3

[1] = average IC50, 10 μM substrate, 30° C., 40 mM Tris pH 8.0, read-out: Meprin Beta IC50
[2] = average IC50, 10 μM substrate, 30° C., 40 mM HEPES pH 7.4, read-out: Meprin Alpha IC50
[3] = average Ki, 4 substrate concentrations (5-40 μM), 30° C., 40 mM HEPES pH 7.4, read-out: Meprin Alpha Ki

| Structure (SMILES) | Ki (hMeprin β) [nM] | IC50 (hMeprin α; [2]) [nM] | Ki (hMeprin α; [3]) [nM] | IC50 (hMeprin β) [nM] | IC50 (hMeprin α) [nM] | Ki (hMeprin α) [nM] | IC50 (hMeprin β; [1]) [nM] |
| --- | --- | --- | --- | --- | --- | --- | --- |
| O=C(CN(Cc1c(F)ccc(O)c1F)Cc1c(F)ccc(O)c1F)NO [Example 49, 2-[bis[(2,6-difluoro-3-hydroxy-phenyl)methyl]-amino]ethanehydroxamic acid] | 1960 | – | – | – | 5600 | 998 | 5520 |
| O=C(CN(Cc1ccc(F)c(O)c1)Cc1ccc(F)c(O)c1)NO [Example 50, 2-[bis[(4-fluoro-3-hydroxy-phenyl)methyl]-amino]ethanehydroxamic acid] | 352 | 986 | 306 | – | – | – | 1060 |
| O=C(CN(Cc1cccc(O)c1F)Cc1cccc(O)c1F)NO [Example 51, 2-[bis[(2-fluoro-3-hydroxy-phenyl)methyl]-amino]ethanehydroxamic acid] | 1170 | 1210 | 335 | – | – | – | 2900 |
| O=C(CN(Cc1ccc(Cl)c(O)c1F)Cc1ccc(Cl)c(O)c1F)NO [Example 52, 2-[bis[(4-chloro-2-fluoro-3-hydroxy-phenyl)-methyl]amino]ethanehydroxamic acid] | 8 | – | 104 | – | – | – | – |
| COc1ccc(CN(CC(=O)NO)Cc2ccc(F)c(O)c2F)cc1 [Example 53, 2-[(2,4-difluoro-3-hydroxy-phenyl)methyl-[(4-methoxyphenyl)methyl]amino]ethanehydroxamic acid] | 158 | 995 | 328 | 331 | – | – | – |
| CCOC(=O)c1cccc(CN(CC(=O)NO)Cc2cccc(C(=O)OCC)c2)c1 [Example 54, ethyl 3-[[(3-ethoxycarbonylphenyl)methyl-[2-(hydroxyamino)-2-oxo-ethyl]amino]methyl]benzoate] | 1760 | 7270 | – | – | – | – | 94800 |
| COc1c(F)ccc(CN(CC(=O)NO)Cc2ccc(F)c(OC)c2F)c1F [Example 58, 2-[bis[(2,4-difluoro-3-methoxy-phenyl)methyl]-amino]ethanehydroxamic acid] | – | 2830 | 726 | – | – | – | 18200 |
| CCOC(=O)c1cccc(CN(CC(=O)NO)Cc2cccc(C(=O)O)c2)c1 [Example 59, 3-[[(3-ethoxycarbonylphenyl)methyl-[2-(hydroxyamino)-2-oxo-ethyl]amino]methyl]benzoic acid] | 271 | 4130 | 1470 | 839 | – | – | – |
| O=C(CN(Cc1ccc(Cl)cc1F)Cc1ccc(Cl)cc1F)NO [Example 60, 2-[bis[(4-chloro-2-fluoro-phenyl)methyl]-amino]ethanehydroxamic acid] | – | 3060 | 838 | 138000 | – | – | – |
| COc1cc(CN(CC(=O)NO)Cc2cc(OC)c(OC)c(OC)c2)cc(OC)c1OC [Example 61, 2-[bis[(3,4,5-trimethoxyphenyl)methyl]-amino]-ethanehydroxamic acid] | – | 5320 | 1180 | 20100 | – | – | – |
| O=C(CN(Cc1ccc2c(c1)OCCO2)Cc1ccc2c(c1)OCCO2)NO [Example 63, 2-[bis(2,3-dihydro-1,4-benzodioxin-6-yl-methyl)amino]ethanehydroxamic acid] | – | 1520 | 297 | 30600 | – | – | – |
| COc1c(F)ccc(CN(CCC(=O)NO)Cc2ccc(F)c(OC)c2F)c1F [Example 64, 3-[bis[(2,4-difluoro-3-methoxy-phenyl)methyl]-amino]propanehydroxamic acid] | – | 881 | 332 | 18700 | – | – | – |
| COc1cc(CN(CCC(=O)NO)Cc2cc(OC)c(OC)c(OC)c2)cc(OC)c1OC [Example 66, 3-[bis[(3,4,5-trimethoxyphenyl)methyl]amino]-propanehydroxamic acid] | – | 19800 | – | 90000 | – | – | – |
| O=C(CN(Cc1cccc(OC(F)F)c1)Cc1cccc(OC(F)F)c1)NO [Example 72] | – | 5680 | 2150 | – | – | – | 57000 |

Continued, in another order:

| Ki (hMeprin β) [nM] | IC50 (hMeprin α; [2]) [nM] | Ki (hMeprin α; [3]) [nM] | IC50 (hMeprin β) [nM] | Structure (SMILES) | IC50 (hMeprin α) [nM] | Ki (hMeprin α) [nM] | IC50 (hMeprin β; [1]) [nM] |
| --- | --- | --- | --- | --- | --- | --- | --- |
| 1820 | 554 | 164 | 4570 | COc1cc(CN(CC(=O)NO)Cc2cc(OC)c3c(c2)OCO3)cc2c1OCO2 [Example 68, 2-[bis[(7-methoxy-1,3-benzodioxol-5-yl)methyl]amino]ethanehydroxamic acid] | – | – | – |
| 3740 | 400 | 117 | 7590 | O=C(CCN(Cc1ccc2c(c1)OCCO2)Cc1ccc2c(c1)OCCO2)NO [Example 69, 3-[bis(2,3-dihydro-1,4-benzodioxin-6-ylmethyl)amino]propanehydroxamic acid] | – | – | – |
| – | 2340 | 696 | 33100 | N#Cc1cccc(CN(CCC(=O)NO)Cc2cccc(C#N)c2)c1 [Example 70, 3-[bis[(3-cyanophenyl)methyl]amino]-propanehydroxamic acid] | – | – | – |
| – | 1680 | 612 | 75500 | O=C(CCN(Cc1ccccc1)Cc1ccccc1)NO [Example 71, 3-(dibenzylamino) propanehydroxamic acid] | – | – | – |
| – | 1960 | 637 | 21700 | O=C(CN(Cc1cccnc1)Cc1cccnc1)NO [Example 73, 2-[bis(3-pyridylmethyl)amino]ethanehydroxamic acid] | – | – | – |
| 1150 | 150 | 52 | – | O=C(CCN(Cc1ccc2c(c1)OCO2)Cc1ccc2c(c1)OCO2)NO [Example 74, 3-[bis(1,3-benzodioxol-5-ylmethyl)amino]-propanehydroxamic acid] | – | – | – |

Reference: patent US12378186B2, “Inhibitors of meprin α and β” (VIVORYON THERAPEUTICS N.V., priority 2016, dated 2025)
